# From patent US7238793B2 (Duke University, priority 2001, dated 2007)
# Test system: 5X-Gal4-tata-Luc or TK-Gal4-Luc
# Experiment: Autonomous repressor activity, Gal4 DBD fusions on Gal4-responsive reporter genes in HepG2 cells
# Format: cell-based
# Details: fused to Gal4 DBD, both reporter genes
substance,measurement,value
"NCoR: known transcriptional repressor, nuclear receptor co-repressor",effect on transcriptional activity of Gal4-responsive reporter genes,inhibit
